These results are taken from patent publication US11066438B2, “Squalamine solid forms and methods of making the same” (Enterin, Inc., priority 2017, dated 2021).

The subject of one series is HIV. The conditions noted are these: cited from earlier work.
For series [1] the following is noted: cited from earlier work.
The conditions of series [2]: cited from earlier work. The source holds these as a separate data set.
Series [3] can be described thus: Critical water activity for relative form stability: ethanol slurries at 25° C., XRPD. The format is physicochemical. The following applies: for Final Form by XRPD: ethanol slurry 25° C.; for Water activity levels in ethanol at which the form is the stable form: EtOH slurries, 25° C. The protocol: For robust isolation of desired squalamine phosphate crystal form, critical water activity in EtOH has been investigated in terms of the relative stability of ENT-01 Forms 1 and 2. The procedure is detailed below.
Nine samples of each Form 1 and Form 2 separately (˜25 mg each) were prepared in scintillation vials. To each vial ½ mL of ethanol with water activity levels from 0.1 to 0.9 were added and the vials were let to condition in a shaker at 25° C. for 2-3 days. Similarly, six mixed samples of Form 1 and 2 were prepared and slurry conditioned at water activity levels of 0.1 to 0.6 in ethanol at 25° C. The wet cakes of each slurry were analyzed by XRPD.
The slurries post conditioning were analyzed by XRPD. […] The XRPD pattern matches that of Form 2.

The nature of series [4]: Form stability: low (27% RH) and high (70% RH) humidity conditioning, XRPD. The format is physicochemical. The conditions noted are these: 21° C. The protocol:
One sample each of Form 1 and Form 2 on XRPD plates (˜10 mg each) were exposed to 21° C. 27% RH and 21° C. 70% RH for one and two days, respectively. The four samples were analyzed by XRPD (FIG. 12 and FIG. 13).

Series [5] is described as follows: Form stability: dry ethanol slurry at 30° C., XRPD. The format is physicochemical. The conditions noted are these: Slurry in dry ethanol at 30° C., overnight. How it is done:
A small portion of Form 1 (˜50 mg) and a small portion of Form 2 (˜50 mg) were prepared in scintillation vials and equal volumes of sieve dried ethanol was added, the slurries were conditioned overnight in a shaker at 30° C. The wet slurries were analyzed by XRPD (FIG. 14).

The nature of series [6]: Form stability: water-acetone and water-ethanol wash, then 40° C. drying, XRPD. The format is physicochemical. The following applies: overnight. How it is done:
Two small portions of Form 2 (˜100 mg each) were prepared in sample vials. The first one was slurried in water briefly followed by filtration and acetone wash. The second one was slurried in water briefly, filtered and washed with ethanol. Both samples were then oven dried at 40° C. overnight and analyzed by XRPD (FIG. 11).

Setting [7] is: dose levels 6 to 700 mg/m(2)/day.
The mark [8] stands for this setting: patients, 500 mg/m(2)/day, 5-day continuous i.v. infusion.

Entries after “also recorded” stand apart in the source; their conditions may differ. Read-outs that look alike come from different tables or passages of the source.

In the case of `Nc1nc(=O)n([C@@H]2CS[C@H](CO)O2)cc1F` [COVIRACIL, emtricitabine], in the series on HIV (in vitro), the “greater activity in vitro than lamivudine (3TC)” value is listed as 3-to 10 fold.
`CC[C@H]1C(=O)Nc2ccc(F)cc2N1C(=O)OC(C)C` [GW420867X]: in the series with HIV, the “greater activity than HBY097” value was 25 fold.
For `C[C@H](Sc1nc(N)cc(Cl)n1)c1cc2ccoc2cn1` [PNU-142721], the “greater activity than its predecessor delavirdine” value in the series on HIV is reported as 20- to 50 fold.
On to `CC(C)[C@@H](CC[C@@H](C)[C@H]1CC[C@H]2[C@@H]3[C@H](O)C[C@H]4C[C@@H](NCCCNCCCCN)CC[C@]4(C)[C@H]3CC[C@]12C)OS(=O)(=O)O` [squalamine, 3 beta-N-1-(N-[3-(4-aminobutyl)]-1,3-diaminopropane)-7 alpha,24 zeta-dihydroxy-5 alpha-cholestane 24-sulfate], for which, in series [1] (500 mg/m(2)/day), the dose-limiting toxicity entry was “one of seven patients experienced dose-limiting grade 4 hyperbilirubinemia and grade 3 neurosensory changes”; the tolerability entry is recorded as “well tolerated”. In addition, the dose-limiting toxicity entry in series [1] (700 mg/m(2)/day) was “two of three patients developed grade 4 hyperbilirubinemia”. In addition, in series [1] (setting [7]), the pharmacokinetics versus dose entry is listed as “dose-proportional” and the principal dose-limiting toxicity result was “Hepatotoxicity”. Besides, in series [1] (setting [8]), the “clearance, mean (percentage coefficient of variation)” value was 2.67 liters/h/m(2); the “half-life, mean (percentage coefficient of variation)” value is 9.46 h; the “steady-state concentrations, mean (percentage coefficient of variation)” value is given as 20.08 micro g/ml; the “volume of distribution, mean (percentage coefficient of variation)” value was 36.84 liters/m(2). Moreover, the “dose-limiting toxicity (grade 3/4 arthralgia, myalgia, neutropenia)” value in series [2] (400 mg/m(2)/day with paclitaxel and carboplatin) is listed as “two of three patients”. Moreover, the “dose selected as the Phase II dose on the basis of safety and toxicity” value in series [2] (combination regimen with paclitaxel and carboplatin) is 300 mg/m(2)/day. Besides, the “tolerability of the combination” value in series [2] (continuously daily for 5 days, with paclitaxel and carboplatin on day 1) is “well tolerated”.
For squalamine phosphate [Form 1 + 2], the “Final Form by XRPD” value in series [3] (mixed forms, Aw 0.099, water volume fraction 0.013, seven days) is reported as “Form 1”; in series [3] (mixed forms, Aw 0.205, water volume fraction 0.030, seven days), “Form 1”; in series [3] (mixed forms, Aw 0.298, water volume fraction 0.048, seven days), “Form 1”; in series [3] (mixed forms, Aw 0.398, water volume fraction 0.073, seven days), “Form 1”; in series [3] (mixed forms, Aw 0.502, water volume fraction 0.104, seven days) it was “Form 1”; in series [3] (mixed forms, Aw 0.605 (0.6), water volume fraction 0.145, seven days), “Form 2”. In addition, in series [3] (mixed forms, Aw 0.605 (0.6), water volume fraction 0.145, seven days, listed as Form 1 and 2), the “Final Form by XRPD” value is “converted to Form 2”. The “Form after slurry conditioning, by XRPD” value in series [3] (mixed slurries in Ethanol at water activity levels of 0.1 to 0.5 Aw at 25° C., seven days) is “converted to Form 1”.
For the compound squalamine phosphate [Form 1 + Form 2], the “Final Form by XRPD” value in series [3] (Aw 0.000, water volume fraction 0.000, three days) is reported as “Form 1”; in series [3] (Aw 0.099, water volume fraction 0.013, three days), “Form 1”; in series [3] (Aw 0.205, water volume fraction 0.030, three days), “Form 1”; in series [3] (Aw 0.298, water volume fraction 0.048, three days), “Form 1”; in series [3] (Aw 0.398, water volume fraction 0.073, three days) it was “Form 1 + Form 2”; in series [3] (Aw 0.502, water volume fraction 0.104, three days) it was “Form 1 + Form 2”. The “Final Form by XRPD” value in series [3] (Aw 0.700, water volume fraction 0.198, three days) is listed as “Form 2”; in series [3] (Aw 0.802, water volume fraction 0.296, three days), “Form 2”; in series [3] (Aw 0.900, water volume fraction 0.550, three days), “Form 2”.
squalamine phosphate [Form 1]: the “Final Form by XRPD” value is listed as “remained the same form; also recorded: Form 1” in series [4] (27% RH, overnight (one day)); “remained the same as their respective starting forms; also recorded: Form 1” in series [4] (70% RH, two nights); “Form 1” in series [5]. In series [3], the “Water activity levels in ethanol at which the form is the stable form” value is listed as at most 0.5 Aw. Also, the “Form after slurry conditioning, by XRPD” value was “stayed the same Form” in series [3] (slurries in Ethanol at water activity levels of 0.1 to 0.6 at 25° C., three days) and “converted to Form 2” in series [3] (slurries in Ethanol at water activity levels of 0.7 to 0.9 at 25° C., three days).
Take squalamine phosphate [Form 2]: the “Final Form by XRPD” value is listed as “generates Form 1; also recorded: converted to Form 1” in series [6] (Water-acetone wash + 40° C. dry); “generates Form 1; also recorded: converted to Form 1” in series [6] (Water-ethanol wash + 40° C. dry); “Form 1 was also obtained; also recorded: converted to Form 1” in series [4] (27% RH, overnight (one day)); “remained the same as their respective starting forms; also recorded: Form 2” in series [4] (70% RH, two nights); “converted to Form 1” in series [5]. Moreover, the “Water activity levels in ethanol at which the form is the stable form” value in series [3] is at least 0.6 Aw. Also, the “Form after slurry conditioning, by XRPD” value in series [3] (slurries in Ethanol at water activity levels of 0.1 to 0.3 at 25° C., three days) is listed as “converted to Form 1”; in series [3] (slurries in Ethanol at water activity levels of 0.4 to 0.9 at 25° C., three days), “stayed the same Form 2”.
